Laboratory results reported in PubChem BioAssay AID179 (DTP/NCI, 2004).
“And” between values parts separate entries of the source, which are not always exact repeats. Equal entries are not always repeated. The source made the active and inactive calls.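 How the source made its calls: active means compounds giving half or more protection of infected cells from virus-caused growth loss, again on retest; inactive means the rest.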

Tested on: CEM cells HIV-1 protection, formazan growth assay
Test: NCI AIDS Antiviral Assay
Settings: for IC50: measured here: growth of uninfected CEM cells
In short: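 Five concentrations of each compound were applied to infected and uninfected human CEM cells. Protection from HIV-1 was judged from growth measured with a soluble formazan assay.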

Row | Structure (SMILES) | EC50 | IC50 | outcome
1 | N#Cc1c(-c2ccc(Cl)cc2)c(C#N)c(=O)n(NS(=O)(=O)c2ccccc2)c1O | > 200 µM | > 200 µM | –
2 | COC(=O)C12C(=CCP1(C)=O)C(c1ccccc1)=NN2c1ccccc1 (stereo not drawn) | > 27.5 µM | > 27.5 µM | –
3 | O=c1[nH]c2ccccc2c(O)c1O | > 200 µM | > 200 µM | –
4 | NCCCN1CCN(CCCNc2ccc3ncn4c5ccccc5c(=O)c2c34)CC1 | > 25.1 µM | 1.2 µM | –
5 | COc1cc(C2CC(=O)c3ccccc3O2)ccc1O (stereo not drawn) | > 200 µM | 11.7 µM | –
6 | COc1cc2c3c(c1OC)C(=O)C(=O)C1=C3N(CCC1)CC2 | – | – | inactive
7 | CC(C)OP(=O)(OC(C)C)/C(C#N)=C/c1c[nH]c2ccccc12 | > 200 µM | > 200 µM | –
8 | Nc1nc(Cl)cc(OCC2CC(O)(CO)C2)n1 (stereo not drawn) | > 200 µM | > 200 µM | –
9 | OC1Cn2cc(Br)c[n+]2C1 (stereo not drawn) | > 200 µM | > 200 µM | –
10 | c1ccc2c(c1)ncn1nnnc21 | > 955 µM | 501 µM | –
11 | CCn1c(=O)c2ncnnc2n(CC)c1=O | > 200 µM | > 200 µM | –
12 | CCOC(=O)c1cc(NC(=O)N(CCC#N)CCN(C(=O)N[C@@H](Cc2ccccc2)C(=O)N[C@@H](CC(C)C)C(=O)NC)c2ccccc2)ccc1OC | > 200 µM | 29.5 µM | –
13 | COC(=O)[C@@]12CN(C)[C@@H](C(C)(C)C)N1C(=O)OC2c1ccccc1 (stereo partly drawn) | > 200 µM | > 200 µM | –
14 | Brc1csnn1 | > 200 µM | > 200 µM | –
15 | O=C(O)CCCCCCCc1cc(O)ccc1[N+](=O)[O-] | > 200 µM | > 200 µM | –
16 | CCOC(=O)C1C2CCC(O2)C1C(=O)O (stereo not drawn) | > 200 µM | 21.4 µM | –
17 | CC1(C)OC[C@@H]([C@H](O)C2C=CC(=O)S2)O1 (stereo partly drawn) | – | – | inactive
18 | Clc1cccc(Cl)c1C1SCc2nc3ncccc3n21 (stereo not drawn) | 32.4 µM | 105 µM | –
19 | CCCCCc1cc(CCCC)sc1-c1ccco1 | > 200 µM | 145 µM | –
20 | CCC(CC)n1cc(C(=O)NC(=O)NCCCCCOC(=O)CCCCCCCCCCC(=O)OCCCCCNC(=O)NC(=O)c2cn(C(CC)CC)c(=O)[nH]c2=O)c(=O)[nH]c1=O | > 20.9 µM | > 20.9 µM | –
21 | O=C1C(Cl)N(c2ccc([N+](=O)[O-])cc2)C1c1c[nH]c2ccccc12 (stereo not drawn) | > 145 µM | 18.2 µM | –
22 | CC(=O)Nc1cc(N=Nc2ccc(N=Nc3ccc(NC(=O)c4ccc(N)cc4)cc3C)cc2C)c(S(=O)(=O)O)cc1N=Nc1ccc(S(=O)(=O)O)cc1 | 12.9 µM | 155 µM | –

Row | Structure (SMILES) | EC50 | IC50 | outcome
23 | CN1c2ccccc2C(=O)NC12CCN(CCCC(=O)c1ccc(F)cc1)CC2 | > 200 µM | > 100 µM | –
24 | O=c1cc(P(=O)(O)O)[nH]c(=O)[nH]1 | – | – | inactive
25 | COc1ccc(C2S/C(=C\c3ccc([N+](=O)[O-])cc3)C(=O)N2NC(=O)Cc2ccccc2)cc1 (stereo not drawn) | > 55 µM | > 55 µM | –
26 | COc1cc(Oc2nc3ccc(C(F)(F)F)cc3nc2-c2ccccc2)cc(OC)c1OC | > 93.3 µM | 57.5 µM | –
27 | COC(CC1(/C=C/O[Si](C(C)C)(C(C)C)C(C)C)C(=O)N(COCC[Si](C)(C)C)c2ccccc21)OC (stereo not drawn) | > 200 µM | 36.3 µM | –
28 | CCOC(=O)C1=C(O)C(=O)NC(C(=O)OCC)=C(c2ccccc2)C1 | > 50.1 µM | > 50.1 µM | –
29 | COc1ccc(-c2c(C#N)c(S)n(C3OC(CO)C(O)C(O)C3O)c(=O)c2C#N)cc1 (stereo not drawn) | > 200 µM | 195 µM and > 200 µM | –
30 | O=C(CC1(O)C(=O)Nc2c(Cl)cc(Cl)cc21)c1ccc(Cl)cc1 (stereo not drawn) | – | – | inactive
31 | COC(C(=O)C(O)C(C)O)C1Cc2cc3cc(OC4CC(OC5CC(O)C(O)C(C)O5)C(O)C(C)O4)c(C)c(O)c3c(O)c2C(=O)C1OC1CC(OC2CC(O)C(OC3CC(C)(O)C(O)C(C)O3)C(C)O2)C(O)C(C)O1 (stereo not drawn) | – | – | inactive
32 | c1ccc2c(c1)C(=NCCCN1CCCCCCC1)c1cccn1-2 | > 200 µM | 47.9 µM | –
33 | CC1CCCN2C(=O)CN(N3CCOCC3)CC(=O)N12 (stereo not drawn) | > 200 µM | > 200 µM | –
34 | COC(=O)C1(O)c2ccccc2N=C2C1CCN2C (stereo not drawn) | > 27.5 µM | > 27.5 µM | –
35 | C/C=C1\C[C@@H]2C(OC)Nc3cc(O)c(OC)cc3C(=O)N2C1 (stereo partly drawn) | > 813 µM | 0.263 µM | –
36 | CN(C)c1cccc2c(S(=O)(=O)NCCCNCCN)cccc12 | > 200 µM | 66.1 µM | –
37 | CC(=O)N[C@@H]1C(O)CN2C(=O)C(=O)O[C@H](C(O)CO)[C@@H]12 (stereo partly drawn) | – | – | inactive
38 | O=C1c2ccccc2Sc2ccccc2N1CCCCCCN1CCN(c2ccc(F)cc2)CC1 | > 200 µM | 10.5 µM | –
39 | O=C(NCCCN(CCCCN(CCCNC(=O)C(F)(F)F)Cc1ccc2ccccc2c1)Cc1ccc2ccccc2c1)C(F)(F)F | – | – | inactive
40 | CC1(C)N=C(C(N)=O)c2ncn(Cc3ccccc3)c2N1 | > 200 µM | > 200 µM | –
41 | CONC1CC(n2cc(C)c(=O)[nH]c2=O)OC1CO (stereo not drawn) | > 200 µM | > 200 µM | –
42 | CC(=O)NNC(=S)/N=C/C(C(=O)Nc1ccccc1)=C(/C)O | > 200 µM | > 200 µM | –
43 | COc1ccc(C(c2ccc(C(C)C)cc(OC)c2=O)c2ccc(C(C)C)cc(OC)c2=O)cc1 | – | – | inactive
44 | Cc1ccc(C(c2c(O)c3ccccc3n(-c3ccccc3)c2=O)c2c(O)c3ccccc3n(-c3ccccc3)c2=O)cc1 | > 12.6 µM | > 12.6 µM | –

Row | Structure (SMILES) | EC50 | IC50 | outcome
45 | COc1ccc(C(=O)/C=C/c2ccc(OCC(=O)N3CCN(c4ccccc4)CC3)cc2)cc1OC | – | – | inactive
46 | Cc1cc2c(c(C(=O)O)c1C)-c1cccc(F)c1C2=O | – | – | inactive
47 | Cc1cc(C)nc(NS(=O)(=O)c2ccc(Nc3c4ccccc4nc4c(C(=O)NCCCN(CCO)CCO)cccc34)cc2)n1 | > 200 µM | 6.46 µM | –
48 | CCCCCCCCCCCCCCCCCC(=O)OCC(COC1OC(CS(=O)(=O)O)C(O)C(O)C1O)OC(=O)CCCCCCCCCCCCCCCCC (stereo not drawn) | 11.7 µM and > 20.4 µM | 138 µM and > 20.4 µM | inactive
49 | O=C(NCc1ccccc1)c1cc2ccc(O)c(O)c2cn1 | > 100 µM | 1.7 µM and > 6.31 µM | –
50 | CCc1n[nH]c(=O)n1N1C(=O)C2CC=CCC2C1=O (stereo not drawn) | > 200 µM | > 200 µM | –
51 | O=C1NNC2CCCCC2O1 (stereo not drawn) | > 1150 µM | > 1150 µM | –
52 | N#Cc1ccc(Oc2cccc(Oc3ccccc3)c2)cc1C#N | > 43.7 µM | > 43.7 µM | –
53 | CC(C)=CCC/C(C)=C/CCC1(C)C=Cc2c(c3ccccc3oc2=O)O1 (stereo not drawn) | – | – | inactive
54 | O=c1[nH]c(=O)n(C2CC(O)C(COP(=O)(On3nnc4ccccc43)N3CCCCC3)O2)cc1F (stereo not drawn) | > 200 µM | 0.0631 µM | –
55 | c1cc(N(CCn2cccn2)CCn2cccn2)cc(N(CCn2cccn2)CCn2cccn2)c1 | – | – | inactive
56 | O=C1c2ccccc2C2(Br)C(=O)c3ccccc3C12 (stereo not drawn) | – | – | inactive
57 | CN(C)N1C(=O)C(=O)N(c2cccc3ccccc23)C1=O | > 200 µM | > 200 µM | –
58 | CC1CC(C)CN(Cc2cccnc2)C1 (stereo not drawn) | – | – | inactive
59 | CCCCCCCCCCCCCCCCOP(=O)(O)OCC(NC(C)=O)C(=O)O (stereo not drawn) | > 200 µM | 63.1 µM | –
60 | CC1c2[nH]c3ccccc3c2CCN1O (stereo not drawn) | – | – | inactive
61 | O=C(CO[N+](=O)[O-])OC/C=C/c1ccccc1 | – | – | inactive
62 | O=c1[nH]c(=O)n(C2CC(O)C(CO)O2)cc1C(OCC(F)(F)F)OCC(F)(F)F (stereo not drawn) | > 251 µM | 12 µM | –
63 | Cc1cc2c(C)cc3c(c2oc1=O)[C@@H](OC(=O)C12CCC(C)(C(=O)O1)C2(C)C)[C@@H](OC(=O)C12CCC(C)(C(=O)O1)C2(C)C)C(C)(C)O3 (stereo partly drawn) | 0.692 µM | 6.92 µM | –
64 | Brc1ccc(-c2nc3sc(-c4ccc5c(c4)OCO5)nn3c2Br)cc1 | > 200 µM | > 200 µM | –
65 | CCn1c2ccccc2c2c3ncc4cccn4c3ccc21 | > 200 µM | 135 µM | –
66 | CN(C)c1c(-c2ccccc2)cc(-c2ccccc2)[nH]c1=O | > 64.6 µM | > 64.6 µM | –

Row | Structure (SMILES) | EC50 | IC50 | outcome
67 | O=C(CCC(C(=O)OCc1ccccc1)C(=O)OCc1ccccc1)Nc1ccc(OCc2ccccc2)cc1 | > 200 µM | 107 µM | –
68 | CN(C)c1ccc(/C(=N\N)c2ccccc2)cc1 | > 200 µM | 112 µM | –
69 | CON(C)c1nc(Cl)nc(N(C)OC)n1 | > 200 µM | > 200 µM | –
70 | CCC(=O)C(CCN1CCC(N2C(=O)C(CCC#N)c3ccccc32)CC1)(c1ccccc1)c1ccccc1 (stereo not drawn) | > 200 µM | 28.8 µM | –
71 | CCCCON1C[C@@H](O)C(O)[C@@H](O)C1 (stereo partly drawn) | > 200 µM | > 200 µM | –
72 | CC(C)/C=C/C1=C(O)c2ccccc2C(=O)C1=O | – | – | inactive
73 | COc1ccc(NC(=O)c2c(N)c(C#N)c3n2CCC3)cc1 | > 200 µM | > 200 µM | –
74 | CCCc1cc(=O)oc2c3c(cc(OC)c12)O[C@H](C)C(C)C3=O (stereo partly drawn) | > 200 µM | 58.9 µM | –
75 | C/C(=N\NS(=O)(=O)c1ccc(C)cc1)c1cc2ccccc2n1C | > 79.4 µM | > 79.4 µM | –
76 | Cc1nc2sccn2c1C(=O)NC(=O)Nc1ccc(Cl)cc1 | > 20.4 µM | > 20.4 µM | –
77 | O=S1(=O)c2ccccc2N=C(c2ccccc2Cl)CC1c1ccc(F)cc1 (stereo not drawn) | > 14.8 µM | 10.5 µM | –
78 | Cc1ccc2c(c1)-c1c(C#N)c(N)nc(-c3ccccc3)c1CCS2(=O)=O | > 200 µM | 2.09 µM | –
79 | NNc1cnn(-c2ccccc2)c(=O)c1Cl | > 57.5 µM | 4.57 µM | –
80 | COc1ccc(-c2c3c(n(C4OC(COC(C)=O)C(OC(C)=O)C(OC(C)=O)C4OC(C)=O)c(=S)c2C#N)CCC3)cc1 (stereo not drawn) | > 200 µM | 112 µM | –
81 | O=C1CCCN1CO | > 200 µM | > 200 µM | –
82 | CN/N=C(\C)C(CN1CCCCC1)C(C1=C(O)c2ccccc2OC1)c1ccccc1 (stereo not drawn) | > 29.5 µM | > 29.5 µM | –
83 | O=C1C=CC(=O)c2nc3c(cc21)CCC3 | > 91.2 µM | 10.5 µM | –
84 | CCCCCCCc1cc(OC(=O)c2c(C)cc(OC)cc2O)cc(O)c1C(=O)O | > 162 µM | 83.2 µM | –
85 | C=Cc1ccccc1N=NC(C(=O)OC)=P(c1ccccc1)(c1ccccc1)c1ccccc1 | > 1.17 µM | > 1.17 µM | –
86 | Clc1cccc(N=C/C=C/Nc2cccc(Cl)c2)c1 | > 200 µM | 30.9 µM | –
87 | Cc1ccc(NC(=O)/C(CC(=O)c2sc(Nc3ccc(Cl)c(Cl)c3)nc2C)=N\Nc2ccc([N+](=O)[O-])cc2[N+](=O)[O-])c(C)c1 | > 200 µM | 25.1 µM | –
